Laboratory results: ChEMBL document CHEMBL4190365, “Synthesis and antiproliferative properties of new hydrophilic esters of triterpenic acids” (Eur J Med Chem, 2017)
Active and inactive are the calls of the source. No cut-off for these calls is given here.

Assays:
[1] = test system: CCRF-CEM; experiment: Cytotoxicity in human CEM cells assessed as reduction in cell viability incubated for 72 hrs by calcein AM cytotoxicity assay; assay type: functional, cell-based; conditions: Homo sapiens, CCRF-CEM, 72 h
[2] = test system: MCF7; experiment: Cytotoxicity in human MCF7 cells assessed as reduction in cell viability incubated for 72 hrs by calcein AM cytotoxicity assay; assay type: functional, cell-based; conditions: Homo sapiens, MCF7, 72 h
[3] = test system: HeLa; experiment: Cytotoxicity in human HeLa cells assessed as reduction in cell viability incubated for 72 hrs by calcein AM cytotoxicity assay; assay type: functional, cell-based; conditions: Homo sapiens, HeLa, 72 h
[4] = test system: G-361; experiment: Cytotoxicity in human G361 cells assessed as reduction in cell viability incubated for 72 hrs by calcein AM cytotoxicity assay; assay type: functional, cell-based; conditions: Homo sapiens, G-361, 72 h
[5] = test system: BJ; experiment: Cytotoxicity in human BJ cells assessed as reduction in cell viability incubated for 72 hrs by calcein AM cytotoxicity assay; assay type: functional, cell-based; conditions: Homo sapiens, BJ, 72 h
[6] = test system: G-361; experiment: Induction of cell cycle arrest in human G361 cells assessed as increase in accumulation at subG1 phase at 1 uM incubated for 24 hrs by propidium iodide staining based flow cytometry; assay type: functional
[7] = test system: G-361; experiment: Induction of cell cycle arrest in human G361 cells assessed as increase in accumulation at subG1 phase at 10 uM incubated for 24 hrs by propidium iodide staining based flow cytometry; assay type: functional
[8] = test system: G-361; experiment: Induction of cell cycle arrest in human G361 cells assessed as increase in accumulation at G0/G1 phase at 1 uM incubated for 24 hrs by propidium iodide staining based flow cytometry; assay type: functional
[9] = test system: G-361; experiment: Induction of cell cycle arrest in human G361 cells assessed as increase in accumulation at G0/G1 phase at 10 uM incubated for 24 hrs by propidium iodide staining based flow cytometry; assay type: functional
[10] = test system: G-361; experiment: Induction of cell cycle arrest in human G361 cells assessed as reduction in accumulation at G2M phase at 1 uM incubated for 24 hrs by propidium iodide staining based flow cytometry; assay type: functional
[11] = test system: G-361; experiment: Induction of cell cycle arrest in human G361 cells assessed as reduction in accumulation at G2M phase at 10 uM incubated for 24 hrs by propidium iodide staining based flow cytometry; assay type: functional
[12] = test system: G-361; experiment: Induction of apoptosis in human G361 cells assessed as induction of caspase-3 expression at 1 uM incubated for 24 hrs by Western blot method; assay type: functional, cell-based
[13] = test system: G-361; experiment: Induction of apoptosis in human G361 cells assessed as induction of caspase-3 expression at 10 uM incubated for 24 hrs by Western blot method; assay type: functional, cell-based
[14] = test system: G-361; experiment: Induction of apoptosis in human G361 cells assessed as induction of PARP cleavage at 10 uM incubated for 24 hrs by Western blot method; assay type: functional, cell-based
[15] = test system: G-361; experiment: Induction of apoptosis in human G361 cells assessed as reduction total Rb protein levels at 10 uM incubated for 24 hrs by Western blot method; assay type: functional, cell-based
[16] = test system: G-361; experiment: Induction of apoptosis in human G361 cells assessed as effect on Bcl2 protein levels at 10 uM incubated for 24 hrs by Western blot method; assay type: functional, cell-based
[17] = test system: G-361; experiment: Induction of apoptosis in human G361 cells assessed as effect on Bcl2 protein levels at 1 uM incubated for 24 hrs by Western blot method; assay type: functional, cell-based
[18] = test system: G-361; experiment: Induction of apoptosis in human G361 cells assessed as reduction Mcl1 protein levels at 10 uM incubated for 24 hrs by Western blot method; assay type: functional, cell-based
[19] = test system: G-361; experiment: Induction of apoptosis in human G361 cells assessed as reduction Mcl1 protein levels at 1 uM incubated for 24 hrs by Western blot method; assay type: functional, cell-based

Row | Compound | IC50 [1] [µM] | IC50 [2] [µM] | IC50 [3] [µM] | IC50 [4] [µM] | IC50 [5] [µM] | also measured
1 | COCCOCCOC(=O)[C@]12CC[C@@H](C(C)C)[C@@H]1[C@H]1CC[C@@H]3[C@@]4(C)CC[C@H](O)C(C)(C)[C@@H]4CC[C@@]3(C)[C@]1(C)CC2 | 32.3 | 31.3 | 26.4 | 24 | 30.5 | 
2 | CC(=O)O[C@H]1CC[C@]2(C)[C@H]3CC[C@@H]4C5=C(C(C)C)C(=O)C[C@]5(C(=O)OCCN5CCCC5)CC[C@@]4(C)[C@]3(C)CC[C@H]2C1(C)C | 13.3 | 7.3 | 7.7 | 6.5 | 19.1 | 
3 | CC(=O)OC[C@@]1(C(=O)OCCN2CCCC2)CC[C@]2(C)[C@H](CC[C@@H]3[C@@]4(C)CC[C@H](OC(C)=O)C(C)(C)[C@@H]4CC[C@]32C)C1=O | 25.8 | > 50 | > 50 | 20.3 | > 50 | 
4 | CC(=O)OC[C@@]1(C(=O)OCCBr)CC[C@]2(C)[C@H](CC[C@@H]3[C@@]4(C)CC[C@H](OC(C)=O)C(C)(C)[C@@H]4CC[C@]32C)C1=O | > 50 | > 50 | > 50 | > 50 | > 50 | 
5 | CC(C)[C@@H]1CC[C@]2(C(=O)O[C@@H]3O[C@H](CO)[C@H](O)[C@H](O)[C@H]3O)CC[C@]3(C)[C@H](CC[C@@H]4[C@@]5(C)CC[C@H](O)C(C)(C)[C@@H]5CC[C@]43C)[C@@H]12 | > 50 | > 50 | > 50 | > 50 | > 50 | 
6 | CC(=O)O[C@H]1CC[C@]2(C)[C@H]3CC[C@@H]4C5=C(C(C)C)C(=O)C[C@]5(C(=O)OCCN5CCOCC5)CC[C@@]4(C)[C@]3(C)CC[C@H]2C1(C)C | 12.6 | 14.5 | 16.1 | 7 | 42.5 | 
7 | C=C(C)[C@@H]1CC[C@]2(C(=O)O[C@@H]3O[C@H](COC(C)=O)[C@@H](OC(C)=O)[C@H](OC(C)=O)[C@H]3OC(C)=O)CC[C@]3(C)[C@H](CC[C@@H]4[C@@]5(C)CC[C@H](O)C(C)(C)[C@@H]5CC[C@]43C)[C@@H]12 | > 50 | > 50 | > 50 | > 50 | > 50 | 
8 | CC(=O)O[C@H]1CC[C@]2(C)[C@H]3CC[C@@H]4C5=C(C(C)C)C(=O)C[C@]5(C(=O)OCCN5CCCCC5)CC[C@@]4(C)[C@]3(C)CC[C@H]2C1(C)C |  |  |  |  |  | Activity [6]: Active; Activity [7]: Active; Activity [8]: Active; Activity [9]: Active; Activity [10]: Active; Activity [11]: Active; Activity [12]: inactive; Activity [13]: inactive; Activity [14]: Active; Activity [15]: Active; Activity [16]: inactive; Activity [17]: inactive; Activity [18]: Active; Activity [19]: Active
9 | C=C(C)[C@@H]1CC[C@]2(C(=O)OCC(=O)OCc3ccccc3)CC[C@]3(C)[C@H](CC[C@@H]4[C@@]5(C)CC[C@H](O)C(C)(C)[C@@H]5CC[C@]43C)[C@@H]12 | 21.9 | > 50 | > 50 | 22.2 | > 50 | 
10 | CC(=O)OC[C@@]1(C(=O)OCC(=O)O)CC[C@]2(C)[C@H](CC[C@@H]3[C@@]4(C)CC[C@H](OC(C)=O)C(C)(C)[C@@H]4CC[C@]32C)C1=O | 32.4 | > 50 | > 50 | > 50 | 7 | 
11 | CC(=O)O[C@H]1CC[C@]2(C)[C@H]3CC[C@@H]4C5=C(C(C)C)C(=O)C(=O)[C@]5(C(=O)OCCN5CCOCC5)CC[C@@]4(C)[C@]3(C)CC[C@H]2C1(C)C | 8.1 | 18.3 | 5.5 | 2.2 | 25.3 | 
